# Test results published in ChEMBL document CHEMBL1201862, “PubChem BioAssay data set” (2004).
# Calls of active or inactive are those of the source.
# Legend:
# Mucolipin-3 = target: T1, Mucolipin-3 (Homo sapiens, UniProt Q8TDD5); assay: Fluorescence counterscreen assay for […] agonists: dose response cell-based high-throughput screening assay to identify agonists of the transient receptor potential channel ML3 (TRPML3). [Related pubchem assays: 1424, 1448 ]; type: functional
# T1 sequence (Q8TDD5 whole entry): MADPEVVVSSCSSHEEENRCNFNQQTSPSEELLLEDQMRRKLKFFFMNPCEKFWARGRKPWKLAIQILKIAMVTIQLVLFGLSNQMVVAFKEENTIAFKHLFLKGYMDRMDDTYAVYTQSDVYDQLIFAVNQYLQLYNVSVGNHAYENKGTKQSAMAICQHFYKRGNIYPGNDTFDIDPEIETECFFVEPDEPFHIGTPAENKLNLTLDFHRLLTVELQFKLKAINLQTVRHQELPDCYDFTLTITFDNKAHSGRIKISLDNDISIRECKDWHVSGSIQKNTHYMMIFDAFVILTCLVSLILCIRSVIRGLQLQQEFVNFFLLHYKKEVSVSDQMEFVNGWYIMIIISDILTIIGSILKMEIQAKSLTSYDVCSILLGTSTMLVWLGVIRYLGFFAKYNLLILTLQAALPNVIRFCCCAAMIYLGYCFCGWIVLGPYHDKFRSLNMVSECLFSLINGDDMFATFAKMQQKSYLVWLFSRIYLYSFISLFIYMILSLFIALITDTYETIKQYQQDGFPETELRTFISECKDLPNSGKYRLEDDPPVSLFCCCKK
# Ion channel NompC = Ion channel NompC (Danio rerio, UniProt Q7T1G6); assay: Dose response cell-based high-throughput screening assay for agonists of the transient receptor potential channel N1 (TRPN1). [Related pubchem assays (depositor defined):AID1424, AID1448]; type: functional
# Sequence of Ion channel NompC (Q7T1G6 whole entry): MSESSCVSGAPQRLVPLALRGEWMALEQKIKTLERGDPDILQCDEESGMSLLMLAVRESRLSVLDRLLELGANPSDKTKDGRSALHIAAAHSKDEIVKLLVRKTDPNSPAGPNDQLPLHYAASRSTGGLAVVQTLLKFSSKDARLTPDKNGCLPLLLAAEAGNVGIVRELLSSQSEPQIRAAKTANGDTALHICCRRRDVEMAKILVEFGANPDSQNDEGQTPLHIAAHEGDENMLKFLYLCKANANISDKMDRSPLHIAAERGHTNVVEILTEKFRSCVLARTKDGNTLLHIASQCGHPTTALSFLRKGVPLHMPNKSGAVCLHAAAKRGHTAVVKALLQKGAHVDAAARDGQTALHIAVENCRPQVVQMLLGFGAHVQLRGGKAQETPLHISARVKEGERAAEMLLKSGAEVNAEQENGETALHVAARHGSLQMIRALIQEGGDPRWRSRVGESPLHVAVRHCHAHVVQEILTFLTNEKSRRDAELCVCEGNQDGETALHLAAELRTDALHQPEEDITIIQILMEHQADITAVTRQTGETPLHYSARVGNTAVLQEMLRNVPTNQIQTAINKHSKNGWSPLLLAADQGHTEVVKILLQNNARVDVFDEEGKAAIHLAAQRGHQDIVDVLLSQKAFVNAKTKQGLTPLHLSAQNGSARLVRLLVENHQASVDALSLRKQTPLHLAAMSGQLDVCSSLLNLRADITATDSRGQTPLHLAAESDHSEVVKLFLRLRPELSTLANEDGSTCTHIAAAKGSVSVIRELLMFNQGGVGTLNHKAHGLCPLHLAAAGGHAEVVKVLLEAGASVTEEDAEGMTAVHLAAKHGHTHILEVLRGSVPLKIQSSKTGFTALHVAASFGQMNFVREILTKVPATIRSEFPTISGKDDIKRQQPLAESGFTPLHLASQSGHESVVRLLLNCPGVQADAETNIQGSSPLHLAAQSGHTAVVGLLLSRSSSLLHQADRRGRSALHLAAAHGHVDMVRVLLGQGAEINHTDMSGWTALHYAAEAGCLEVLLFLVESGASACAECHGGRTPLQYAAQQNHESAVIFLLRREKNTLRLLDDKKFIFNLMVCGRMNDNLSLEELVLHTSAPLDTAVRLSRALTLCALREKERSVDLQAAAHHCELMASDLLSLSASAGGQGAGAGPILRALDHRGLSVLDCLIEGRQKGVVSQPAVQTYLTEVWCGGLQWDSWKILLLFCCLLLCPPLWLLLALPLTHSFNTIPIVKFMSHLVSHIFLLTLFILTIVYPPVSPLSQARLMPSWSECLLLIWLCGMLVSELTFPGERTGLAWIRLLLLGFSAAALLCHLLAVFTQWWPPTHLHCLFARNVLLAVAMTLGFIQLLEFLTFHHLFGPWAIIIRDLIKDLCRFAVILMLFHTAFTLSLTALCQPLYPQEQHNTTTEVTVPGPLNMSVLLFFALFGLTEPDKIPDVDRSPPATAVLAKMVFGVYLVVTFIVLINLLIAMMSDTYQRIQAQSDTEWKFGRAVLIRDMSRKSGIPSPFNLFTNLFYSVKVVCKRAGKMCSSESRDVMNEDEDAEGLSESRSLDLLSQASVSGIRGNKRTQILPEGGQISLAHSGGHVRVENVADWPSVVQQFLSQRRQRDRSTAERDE
# Troponin, cardiac muscle = Troponin, cardiac muscle (Homo sapiens, UniProt P19429+P45379+P63316); assay: Fluorescence-based biochemical high throughput dose response assay for activators of the calcium sensitivity of cardiac Regulated Thin Filaments (RTF). [Related pubchem assays (depositor defined):AID493008, AID493018, AID504382, AID504383]; type: protein-complex assay
# Cannabinoid receptor 1 [1] = target: T2, Cannabinoid receptor 1 (Homo sapiens, UniProt P21554); assay: SAR analysis of agonists of the Cannabinoid Receptor 1 using an Image-Based Assay - Set 4. [Related pubchem assays (depositor defined):AID2013, AID2026]; type: functional
# T2 sequence (P21554 whole entry): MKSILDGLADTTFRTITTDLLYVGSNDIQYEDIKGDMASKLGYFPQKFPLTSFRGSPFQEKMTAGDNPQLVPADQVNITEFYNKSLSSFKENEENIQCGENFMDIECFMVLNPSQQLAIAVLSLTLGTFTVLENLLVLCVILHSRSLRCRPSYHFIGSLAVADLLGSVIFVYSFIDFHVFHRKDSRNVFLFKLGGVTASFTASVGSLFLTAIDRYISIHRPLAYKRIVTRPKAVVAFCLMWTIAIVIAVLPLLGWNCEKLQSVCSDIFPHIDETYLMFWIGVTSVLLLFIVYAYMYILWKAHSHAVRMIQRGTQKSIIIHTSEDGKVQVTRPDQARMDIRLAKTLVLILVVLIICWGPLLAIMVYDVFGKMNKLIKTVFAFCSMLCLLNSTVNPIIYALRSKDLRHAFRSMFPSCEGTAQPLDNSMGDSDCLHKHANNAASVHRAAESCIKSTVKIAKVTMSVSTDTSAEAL
# [2] = target: T3, G-protein coupled receptor 35 (Homo sapiens, UniProt Q9HC97); assay: SAR analysis of Agonists of the GPR35 Receptor using an Image-Based Assay - Set 4. [Related pubchem assays (depositor defined):AID2013, AID2026]; type: functional
# T3 sequence (Q9HC97 whole entry): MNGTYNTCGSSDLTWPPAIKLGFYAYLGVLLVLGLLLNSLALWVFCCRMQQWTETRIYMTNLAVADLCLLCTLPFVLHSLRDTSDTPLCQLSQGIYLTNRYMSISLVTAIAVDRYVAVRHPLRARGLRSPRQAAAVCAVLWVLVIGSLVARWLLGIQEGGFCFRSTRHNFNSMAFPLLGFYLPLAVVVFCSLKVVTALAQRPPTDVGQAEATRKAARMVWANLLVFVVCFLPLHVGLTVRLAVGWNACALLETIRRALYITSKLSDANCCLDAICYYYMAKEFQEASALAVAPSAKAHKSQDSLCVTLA
# Cannabinoid receptor 1 [3] = target: T2, Cannabinoid receptor 1; assay: SAR analysis of antagonists of the Cannabinoid Receptor 1 using an Image-Based Assay - Set 4. [Related pubchem assays (depositor defined):AID2013, AID2026]; type: functional
# Cannabinoid receptor 2 [4] = target: T4, Cannabinoid receptor 2 (Homo sapiens, UniProt P34972); assay: SAR analysis of agonists of the Cannabinoid Receptor 2 using an Image-Based Assay - Set 3. [Related pubchem assays (depositor defined):AID2013, AID2026]; type: functional
# T4 sequence (P34972 whole entry): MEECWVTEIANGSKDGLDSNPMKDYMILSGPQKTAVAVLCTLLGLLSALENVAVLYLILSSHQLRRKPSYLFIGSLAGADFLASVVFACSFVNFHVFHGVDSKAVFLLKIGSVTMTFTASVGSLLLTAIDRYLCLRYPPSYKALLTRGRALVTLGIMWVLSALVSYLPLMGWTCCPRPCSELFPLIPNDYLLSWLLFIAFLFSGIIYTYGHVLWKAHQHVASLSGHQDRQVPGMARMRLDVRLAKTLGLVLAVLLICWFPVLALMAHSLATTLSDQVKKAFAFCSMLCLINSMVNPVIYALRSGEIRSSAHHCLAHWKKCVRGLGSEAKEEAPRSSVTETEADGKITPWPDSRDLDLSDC
# Cannabinoid receptor 2 [5] = target: T4, Cannabinoid receptor 2; assay: SAR analysis of antagonists of the Cannabinoid Receptor 2 using an Image-Based Assay - Set 3. [Related pubchem assays (depositor defined):AID2013, AID2026]; type: functional
# [6] = target: T3, G-protein coupled receptor 35; assay: SAR analysis of Antagonists of the GPR35 Receptor using an Image-Based Assay - Set 6. [Related pubchem assays (depositor defined):AID2013, AID2026]; type: functional
# [7] = target: G-protein coupled receptor 55 (Homo sapiens, UniProt Q9Y2T6); assay: SAR Analysis of Selective Antagonists of GPR55 using an Image-Based Assay - Set 4. [Related pubchem assays (depositor defined):AID2013, AID2026]; type: functional;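 also: antagonism of response to 5 µM lysophosphatidylinositol agonist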
# Sequence of G-protein coupled receptor 55 (Q9Y2T6 whole entry): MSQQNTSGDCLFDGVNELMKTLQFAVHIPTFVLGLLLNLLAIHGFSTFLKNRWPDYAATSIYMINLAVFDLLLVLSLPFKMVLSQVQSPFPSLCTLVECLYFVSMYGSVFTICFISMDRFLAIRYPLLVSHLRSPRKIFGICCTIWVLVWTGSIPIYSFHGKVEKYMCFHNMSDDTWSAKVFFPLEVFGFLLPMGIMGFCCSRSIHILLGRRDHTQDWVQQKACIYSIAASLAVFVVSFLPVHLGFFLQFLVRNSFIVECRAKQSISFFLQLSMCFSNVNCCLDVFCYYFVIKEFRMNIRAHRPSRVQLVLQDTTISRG
# [8] = target: Kappa-type opioid receptor (Homo sapiens, UniProt P41145); assay: SAR analysis of small molecule agonists of the kappa opioid receptor via a luminescent beta-arrestin assay - Set 3. [Related pubchem assays (depositor defined):AID1777, AID1785, AID1786, AID1966, AID2133, AID2136, AID2284, AID2500]; type: functional
# Sequence of Kappa-type opioid receptor (P41145 whole entry): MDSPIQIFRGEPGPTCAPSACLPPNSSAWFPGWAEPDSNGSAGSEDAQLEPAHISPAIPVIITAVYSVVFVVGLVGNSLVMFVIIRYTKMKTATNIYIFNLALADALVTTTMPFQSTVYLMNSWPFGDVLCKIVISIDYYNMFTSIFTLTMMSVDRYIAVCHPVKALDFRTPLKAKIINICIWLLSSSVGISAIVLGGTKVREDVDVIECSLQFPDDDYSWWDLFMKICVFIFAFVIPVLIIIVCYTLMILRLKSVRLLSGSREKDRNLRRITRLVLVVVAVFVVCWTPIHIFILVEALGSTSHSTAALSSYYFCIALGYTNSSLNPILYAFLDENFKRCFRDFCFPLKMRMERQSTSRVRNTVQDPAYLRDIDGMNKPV
smiles,measurement,setting,value
O=c1oc2c3c4c(cc2c(C(F)(F)F)c1CCN1CCOCC1)CCCN4CCC3,EC50,Mucolipin-3,4.56 µM (active)
same,EC50,Ion channel NompC,> 3.32 µM (inactive)
C=CCN1C(=O)/C(=C/c2ccc(N3CCOCC3)o2)C(=O)NC1=S,EC50,"Troponin, cardiac muscle",5.95 µM (active)
Cc1ccc(-n2cc3c(-c4ccc(Cl)cc4)nnc(C)c3n2)cc1,EC50,Cannabinoid receptor 1 [1],> 32 µM (inactive)
same,EC50,[2],> 32 µM (inactive)
same,IC50,Cannabinoid receptor 1 [3],0.87 µM (active)
same,EC50,Cannabinoid receptor 2 [4],> 32 µM (inactive)
same,IC50,Cannabinoid receptor 2 [5],29.8 µM (inactive)
same,IC50,[6],> 32 µM (inactive)
same,IC50,[7],6.13 µM (active)
c1ccc(CSc2nnc(-c3ccncc3)n2Cc2ccco2)cc1,EC50,[8],> 20 µM (inactive)
